Assays:
Assay type in all cases: in vivo
Scirpus juncoides [1] = assay: Test Example 1: herbicidal effect test by treatment of rice paddy soil (immediately after seeding); conditions: 120 g/10a active ingredient, dry weight vs untreated area, 14 days after treatment
In short: (§1)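 Values are herbicidal rates (%) derived from average plant dry weight in treated versus untreated pots 14 days after treatment, run in duplicate. Treatment was a water-diluted emulsion dropped into flooded paddy soil right after sowing, at 120 g active ingredient per 10 ares.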

Echinochloa crus-galli [2] = assay: as above; conditions: 120 g/10a active ingredient, dry weight vs untreated area, 14 days after treatment
In short: as §1

[3] = test system: broad leaf weeds (Lindernia pyxidaria and Monochoria vaginalis); assay: as above; conditions: 120 g/10a active ingredient, dry weight vs untreated area, 14 days after treatment
In short: as §1

southern crabgrass [4] = assay: Test Example 4: herbicidal effect test by treatment of leave and stem in dry field farming (seven days after seeding); conditions: 120 g/10a active ingredient; emulsion sprayed seven days after seeding; evaluated 14 days after treatment
In short: (§2)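 Weeds were seeded at 20 seeds per species into the top 1 cm of alluvial upland soil in pots, then sprayed 7 days after seeding with water-diluted emulsifiable concentrate at 100 L/10 a, giving 120 g active ingredient/10 a. Duplicate pots; herbicidal rate (%) was 14 days post-treatment, from dry weight versus untreated.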

Amaranthus viridis [5] = assay: as above; conditions: 120 g/10a active ingredient; emulsion sprayed seven days after seeding; evaluated 14 days after treatment
In short: as §2

Echinochloa crus-galli [6] = assay: as above; conditions: 120 g/10a active ingredient; emulsion sprayed seven days after seeding; evaluated 14 days after treatment
In short: as §2

Chenopodium album [7] = assay: as above; conditions: 120 g/10a active ingredient; emulsion sprayed seven days after seeding; evaluated 14 days after treatment
In short: as §2

Scirpus juncoides [8] = assay: Test Example 2: herbicidal effect test by treatment during growing period in paddy rice cultivation (seven days after seeding); conditions: 120 g/10a active ingredient, assessed 14 days after treatment, dry weight vs untreated area
In short: (§3)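 Herbicidal rate = (1 − treated/untreated mean dry weight) × 100, scored 14 days after application, two replicates per rate. Treatment: diluted emulsion dropped onto paddy water seven days after sowing, 120 g active ingredient per 10 ares, in a glass greenhouse.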

Echinochloa crus-galli [9] = assay: as above; conditions: 120 g/10a active ingredient, assessed 14 days after treatment, dry weight vs untreated area
In short: as §3

[10] = test system: broad leaf weeds (Lindernia pyxidaria and Monochoria vaginalis); assay: as above; conditions: 120 g/10a active ingredient, assessed 14 days after treatment, dry weight vs untreated area
In short: as §3

southern crabgrass [11] = assay: Test Example 3: herbicidal effect test by treatment of dry field farming soil (one day after seeding); conditions: 120 g/10a active ingredient, evaluated 14 days after treatment
In short: (§4)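 Seeds (20 each) mixed into top 1 cm of alluvium in pots, surface pressed. One day later, diluted emulsion sprayed onto soil, 100 L/10 a, 120 g a.i./10 a. Dry weight at 14 d vs untreated gave % herbicidal rate; n=2.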

Amaranthus viridis [12] = assay: as above; conditions: 120 g/10a active ingredient, evaluated 14 days after treatment
In short: as §4

Echinochloa crus-galli [13] = assay: as above; conditions: 120 g/10a active ingredient, evaluated 14 days after treatment
In short: as §4

Chenopodium album [14] = assay: as above; conditions: 120 g/10a active ingredient, evaluated 14 days after treatment
In short: as §4

Row | SMILES | Herbicidal rate (%) Scirpus juncoides (Scirpus juncoides [1]) [%] | Herbicidal rate (%) Echinochloa crus-galli (Echinochloa crus-galli [2]) [%] | Herbicidal rate (%) Lindernia pyxidaria [3] [%] | Herbicidal rate (%) Monochoria vaginalis [3] [%] | herbicidal effect (herbicidal rate), southern crabgrass (southern crabgrass [4]) [%] | herbicidal effect (herbicidal rate), Amaranthus viridis (Amaranthus viridis [5]) [%] | herbicidal effect (herbicidal rate), Echinochloa crus-galli (Echinochloa crus-galli [6]) [%] | herbicidal effect (herbicidal rate), Chenopodium album (Chenopodium album [7]) [%] | Herbicidal rate (%) Scirpus juncoides (Scirpus juncoides [8]) [%] | Herbicidal rate (%) Echinochloa crus-galli (Echinochloa crus-galli [9]) [%] | Herbicidal rate (%) Lindernia pyxidaria [10] [%] | Herbicidal rate (%) Monochoria vaginalis [10] [%] | herbicidal rate, southern crabgrass (southern crabgrass [11]) [%] | herbicidal rate, Amaranthus viridis (Amaranthus viridis [12]) [%] | herbicidal rate, Echinochloa crus-galli (Echinochloa crus-galli [13]) [%] | herbicidal rate, Chenopodium album (Chenopodium album [14]) [%]
1 | Cc1c(Cc2ccccc2N(C(=O)OCc2ccccc2)S(=O)(=O)C(F)(F)F)c(=O)on1C(C)(C)C [Compound 1-781] | 90 | 90 | 90 | 90 | 90 | 40 | 90 | 40 | 90 | 90 | 90 | 90 | 90 | 90 | 90 | 90
2 | Cc1c(Cc2ccccc2N(C(=O)OCc2ccccc2)S(=O)(=O)C(F)(F)F)c(=O)on1CC(C)C [Compound 1-785] | 90 | 90 | 90 | 90 | 90 | 40 | 90 | 40 | 90 | 90 | 90 | 90 | 90 | 90 | 90 | 90
3 | COCC(C)n1oc(=O)c(Cc2ccccc2N(C(=O)OCc2ccccc2)S(=O)(=O)C(F)(F)F)c1C (centres unmarked) [Compound 1-790] | 90 | 90 | 90 | 90 | 90 | 40 | 90 | 40 | 90 | 90 | 90 | 90 | 90 | 90 | 90 | 90
4 | Cc1c(Cc2ccccc2N(C(=O)OCc2ccccc2)S(=O)(=O)C(F)(F)F)c(=O)on1C(C)c1ccccc1 (centres unmarked) [Compound 1-796] | 90 | 90 | 90 | 90 | 90 | 40 | 90 | 40 | 90 | 90 | 90 | 90 | 90 | 90 | 90 | 90
5 | CCC(C)n1oc(=O)c(Cc2ccccc2N(C(=O)OCC2CCCO2)S(=O)(=O)C(F)(F)F)c1C (centres unmarked) [Compound 1-829] | 90 | 90 | 90 | 90 | 90 | 40 | 90 | 40 | 90 | 90 | 90 | 90 | 90 | 90 | 90 | 90
6 | CCNC(=O)N(c1ccccc1Cc1c(C)n(C(C)c2ccccc2)oc1=O)S(=O)(=O)C(F)(F)F (centres unmarked) [Compound 1-874] | 90 | 90 | 90 | 90 | 90 | 40 | 90 | 40 | 90 | 90 | 90 | 90 | 90 | 90 | 90 | 90
7 | CCN(CC)C(=O)N(c1ccccc1Cc1c(C)n(C(C)c2ccccc2)oc1=O)S(=O)(=O)C(F)(F)F (centres unmarked) [Compound 1-886] | 90 | 90 | 90 | 90 | 90 | 40 | 90 | 40 | 90 | 90 | 90 | 90 | 90 | 90 | 90 | 90
8 | Cc1c(Cc2ccccc2N(S(C)(=O)=O)S(=O)(=O)C(F)(F)F)c(=O)on1C(C)C [Compound 1-888] | 90 | 100 | 100 | 90 | 40 | 40 | 80 | 40 | 90 | 90 | 80 | 100 | 70 | 40 | 90 | 60

— patent US11109593B2, “Isoxazolin-5-one derivative and herbicide containing same as active ingredient” (HOKKO CHEMICAL INDUSTRY CO., LTD., priority 2017, dated 2021)
